Values joined by “and” are separate entries in the source; they are usually repeats but may differ in a detail not shown here. Equal values may be shown once.
System: Hs578T complex spheroid growth, percent test/control
Assay: Anticancer human tumor Hs578T cell line growth inhibition [AhR];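 further: luminescent viability signal as a proxy for spheroid growth; spheroids exposed to agents for one week after three days of growth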
Settings: for viability, T/C: stronger effect = lower value
How it was run: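 Complex tumor spheroids co-cultured with HUVEC and human MSC stroma; AhR antagonists tested in combination with standard-of-care and investigational agents. Top concentration at or near clinical Cmax (else 10 microM), half-log dilutions; growth expressed as percent test/control.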

[1] = curve of first compound, second compound 0.1 µM
[2] = curve of first compound, second compound 0.316 µM
[3] = curve of first compound, second compound 1 µM
[4] = curve of first compound, second compound 3.16 µM
[5] = curve of first compound, second compound 10 µM
[6] = second compound 0.1 µM, first compound 0.0316 µM
[7] = second compound 0.1 µM, first compound 0.1 µM
[8] = second compound 0.316 µM, first compound 0.0316 µM
[9] = second compound 0.316 µM, first compound 0.1 µM
[10] = second compound 1 µM, first compound 0.0316 µM
[11] = second compound 1 µM, first compound 0.1 µM
[12] = second compound 3.16 µM, first compound 0.0316 µM
[13] = second compound 3.16 µM, first compound 0.1 µM
[14] = second compound 10 µM, first compound 0.0316 µM
[15] = second compound 10 µM, first compound 0.1 µM
[16] = second compound 0.1 µM, first compound 0.316 µM
[17] = second compound 0.1 µM, first compound 1 µM
[18] = second compound 0.1 µM, first compound 3.16 µM
[19] = second compound 0.1 µM, first compound 10 µM
[20] = second compound 0.316 µM, first compound 0.316 µM
[21] = second compound 0.316 µM, first compound 1 µM
[22] = second compound 0.316 µM, first compound 3.16 µM
[23] = second compound 0.316 µM, first compound 10 µM
[24] = second compound 1 µM, first compound 0.316 µM
[25] = second compound 1 µM, first compound 1 µM
[26] = second compound 1 µM, first compound 3.16 µM
[27] = second compound 1 µM, first compound 10 µM
[28] = second compound 3.16 µM, first compound 0.316 µM
[29] = second compound 3.16 µM, first compound 1 µM
[30] = second compound 3.16 µM, first compound 3.16 µM
[31] = second compound 3.16 µM, first compound 10 µM
[32] = second compound 10 µM, first compound 0.316 µM
[33] = second compound 10 µM, first compound 1 µM
[34] = second compound 10 µM, first compound 3.16 µM
[35] = second compound 10 µM, first compound 10 µM

IC50 [1] [µM] | IC50 [2] [µM] | IC50 [3] [µM] | IC50 [4] [µM] | IC50 [5] [µM] | Compound | viability, T/C [6] [%] | viability, T/C [7] [%] | viability, T/C [8] [%] | viability, T/C [9] [%] | viability, T/C [10] [%] | viability, T/C [11] [%] | viability, T/C [12] [%] | viability, T/C [13] [%] | viability, T/C [14] [%] | viability, T/C [15] [%] | viability, T/C [16] [%] | viability, T/C [17] [%] | viability, T/C [18] [%] | viability, T/C [19] [%] | viability, T/C [20] [%] | also measured
> 0.1 | > 0.1 | > 0.1 | > 0.1 | > 0.1 | Cn1ncnc1C1c2n[nH]c(=O)c3cc(F)cc(c23)NC1c1ccc(F)cc1 (configuration not stated) + CC(CO)NC(=O)c1cc(-c2ccc(Cl)cc2)nn(-c2cnn(C)c2)c1=O | 117 | 120 | 118 | 108 | 117 | 109 | 118 | 118 | 109 | 118 | – | – | – | – | – | viability, T/C (second compound 0.1 µM, first compound 0.000316 µM): 111%; viability, T/C (second compound 0.1 µM, first compound 0.001 µM): 118%; viability, T/C (second compound 0.1 µM, first compound 0.00316 µM): 117%; viability, T/C (second compound 0.1 µM, first compound 0.01 µM): 109%; viability, T/C (second compound 0.316 µM, first compound 0.000316 µM): 110%; viability, T/C (second compound 0.316 µM, first compound 0.001 µM): 115%; viability, T/C (second compound 0.316 µM, first compound 0.00316 µM): 125%; viability, T/C (second compound 0.316 µM, first compound 0.01 µM): 118%; viability, T/C (second compound 1 µM, first compound 0.000316 µM): 112%; viability, T/C (second compound 1 µM, first compound 0.001 µM): 131%; viability, T/C (second compound 1 µM, first compound 0.00316 µM): 127%; viability, T/C (second compound 1 µM, first compound 0.01 µM): 109%; viability, T/C (second compound 3.16 µM, first compound 0.000316 µM): 108%; viability, T/C (second compound 3.16 µM, first compound 0.001 µM): 127%; viability, T/C (second compound 3.16 µM, first compound 0.00316 µM): 140%; viability, T/C (second compound 3.16 µM, first compound 0.01 µM): 114%; viability, T/C (second compound 10 µM, first compound 0.000316 µM): 95.1%; viability, T/C (second compound 10 µM, first compound 0.001 µM): 110%; viability, T/C (second compound 10 µM, first compound 0.00316 µM): 104%; viability, T/C (second compound 10 µM, first compound 0.01 µM): 95.6%
5.55 | 4.86 | 6.02 | 4.18 | 4.86 | COc1ccc([C@@H](O)c2cc(-c3ncnc4cc(N5CCOCC5)ccc34)c(F)cc2Cl)nn1 + CC(CO)NC(=O)c1cc(-c2ccc(Cl)cc2)nn(-c2cnn(C)c2)c1=O | 109 | 111 | 113 | 115 | 117 | 112 | 111 | 106 | 95.6 | 97.5 | 105 | 89.2 | 64.2 | 35.7 | 104 | viability, T/C [21]: 87.2%; viability, T/C [22]: 57.8%; viability, T/C [23]: 36.7%; viability, T/C [24]: 102%; viability, T/C [25]: 85.8%; viability, T/C [26]: 65.1%; viability, T/C [27]: 38.3%; viability, T/C [28]: 102%; viability, T/C [29]: 84%; viability, T/C [30]: 52.9%; viability, T/C [31]: 38.7%; viability, T/C [32]: 99.9%; viability, T/C [33]: 82.5%; viability, T/C [34]: 56.9%; viability, T/C [35]: 39.5%

More lines, now with the values behind:

Compound | IC50 [1] [µM] | IC50 [2] [µM] | IC50 [3] [µM] | IC50 [4] [µM] | IC50 [5] [µM] | viability, T/C [6] [%] | viability, T/C [7] [%] | viability, T/C [8] [%] | viability, T/C [9] [%] | viability, T/C [10] [%] | viability, T/C [11] [%] | viability, T/C [12] [%] | viability, T/C [13] [%] | viability, T/C [14] [%] | viability, T/C [15] [%] | viability, T/C [16] [%] | viability, T/C [17] [%] | viability, T/C [18] [%] | viability, T/C [19] [%] | viability, T/C [20] [%] | also measured
NS(=O)(=O)OCC1CC(n2ccc3c(NC4CCc5ccccc54)ncnc32)CC1O (configuration not stated) + Cc1cncc(-c2nc(NCCc3c[nH]c4ccccc34)c3ncn(C(C)C)c3n2)c1 | 2.9 | 2.84 | 2.14 | 0.774 | < 0.0316 | 114 | 94.9 | 128 | 100 | 115 | 98.9 | 69.2 | 66 | 6.36 | 6.52 | 83.3 | 60.2 | 51 | 35.1 | 84.2 | viability, T/C [21]: 60.6%; viability, T/C [22]: 48.2%; viability, T/C [23]: 39.6%; viability, T/C [24]: 99.4%; viability, T/C [25]: 59.4%; viability, T/C [26]: 48.3%; viability, T/C [27]: 36.6%; viability, T/C [28]: 66.1%; viability, T/C [29]: 45.4%; viability, T/C [30]: 35.4%; viability, T/C [31]: 38.3%; viability, T/C [32]: 7.75%; viability, T/C [33]: 5.11%; viability, T/C [34]: 5.06%; viability, T/C [35]: 3.64%
COc1cccc2c1C(=O)c1c(O)c3c(c(O)c1C2=O)CC(O)(C(=O)CO)CC3OC1CC(N)C(O)C(C)O1 (configuration not stated) + CC(CO)NC(=O)c1cc(-c2ccc(Cl)cc2)nn(-c2cnn(C)c2)c1=O | 0.469 | 0.502 | 0.497 | 0.398 | 0.374 | 96.3 | 86.2 | 78.7 | 84.3 | 92 | 88.1 | 88.6 | 91 | 78.3 | 86.4 | 64.6 | 23.9 | 3.62 | 3.54 | 66.8 | viability, T/C [21]: 24.1%; viability, T/C [22]: 2.56%; viability, T/C [23]: 2.88%; viability, T/C [24]: 67.8%; viability, T/C [25]: 22.7%; viability, T/C [26]: 3.26%; viability, T/C [27]: 2.93%; viability, T/C [28]: 58.1%; viability, T/C [29]: 14.6%; viability, T/C [30]: 2.55%; viability, T/C [31]: 3.04%; viability, T/C [32]: 57.8%; viability, T/C [33]: 4.9%; viability, T/C [34]: 2.84%; viability, T/C [35]: 2.14%
CC1(C)CCC(CN2CCN(c3ccc(C(=O)NS(=O)(=O)c4ccc(NCC5CCOCC5)c([N+](=O)[O-])c4)c(Oc4cnc5[nH]ccc5c4)c3)CC2)=C(c2ccc(Cl)cc2)C1 | – | – | – | – | – | – | – | – | – | – | – | – | – | – | – | – | – | – | – | – | viability, T/C (compound 0.0316 µM): 103% and 111% and 99.9%; viability, T/C (compound 0.1 µM): 110% and 109% and 97.8%; viability, T/C (compound 0.316 µM): 112% and 104% and 99.2%; viability, T/C (compound 1 µM): 91% and 103% and 92.9%; viability, T/C (compound 3.16 µM): 101% and 97.7% and 82.6%; viability, T/C (compound 10 µM): 84% and 62.3% and 78.2%; IC50 (curve of compound): > 10 µM
